1 compound from US20250026848A1, “IDENTIFICATION OF PATHOGENIC IMMUNE CELL SUBSETS IN CHECKPOINT INHIBITOR-INDUCED MYOCARDITIS” (U.S. GOVERNMENT AS REPRESENTED BY THE DEPARTMENT OF …, priority 2021, published 2025) can be followed below.

Where only a bound is given, the exact number is not on record here.

This assay concerns ICI myocarditis. Briefly: Longitudinal follow-up of one ICI myocarditis patient (MCE1) treated with glucocorticoids: cardiac biomarker troponin I. The format is in vivo, human. To be noted: one patient with MRI-confirmed ICI myocarditis; 60 mg/day from first day of diagnosis, four-week steroid taper. How it is done:
In order to evaluate the time evolution of clonally-expanded T-cells in ICI myocarditis, we longitudinally analyzed PBMCs from one patient with MRI-confirmed myocarditis at early (t=0 days) and late (t=65 days) timepoints (FIG. 5A). This patient received glucocorticoids (60 mg/day of prednisone) for treatment of their myocarditis on the first day of their diagnosis (after blood collection) and underwent a successful four-week steroid taper with resolution of their cardiac biomarkers (troponin I, measured in ng/ml) by day 25. […] Due to the availability of early and late myocarditis blood samples, our study also provides new insight into the time-course of cellular and molecular changes that occur throughout the onset and resolution of ICI myocarditis. ICI myocarditis has a notoriously unpredictable time course and can occur with a median onset of 17-34 days after initiation of ICI therapy, although cases have been identified anywhere from 1 to 240 days from start of therapy (34,38-40). In our patient, we were able to collect blood at the time of diagnosis of the positive troponin I of 10 ng/ml (t=0) and track to day 65 after a full four-week course of glucocorticoids and resolution of clinical signs of myocarditis. […]

`C[C@]12C=CC(=O)C=C1CC[C@@H]1[C@@H]2C(=O)C[C@@]2(C)[C@H]1CC[C@]2(O)C(=O)CO` [prednisone]: the “resolution of cardiac biomarkers (troponin I)” value was not above 25 days.
